# Results taken from patent US11345676B2, “Apoptosis signal-regulating kinase 1 (ASK 1) inhibitor compounds” (PHARMAKEA, INC., priority 2017, dated 2022).
# Counter-ions that a name gives are not always drawn.
# Key:
# [1] = target: ASK1 (Homo sapiens (Human), UniProt Q99683); test: Human ASK1 ADP-Glo kinase assay; format: biochemical; details: recombinant ASK1 (amino acids 649-946), 50 μM ATP, MBP substrate
# Method: Example B-1: Human ASK1 ADP-Glo Assay
# The ability of test compounds to inhibit ASK1 kinase activity was determined using the luminescent ADP-Glo™ Kinase Assay and Myelin Basic Protein (MBP) as a substrate (Promega Corporation, Madison, Wis.). During the kinase reaction, ASK1 utilizes ATP and generates ADP. The remaining ATP is then depleted by addition of the ADP-Glo™ reagent which also terminates the reaction. Subsequent addition of the Kinase Detection Reagent converts the ADP that was produced during the kinase reaction to ATP, and this newly synthesized ATP is converted to light using the luciferase/luciferin reactions. The assay was performed according to the manufacturer's instructions. Briefly, purified, recombinant ASK1 (amino acids 649-946) (10-20 ng/well) was added to a 384-well, F bottom, small volume, HIbase, white plate (Greiner Bio-One, Monroe, N.C. #784075) containing 1-2 μL 5× test compound or vehicle control (diluted 1:20 from a 100% DMSO stock solution into 1× Reaction Buffer A). The enzyme was allowed to pre-incubate with test compound from 15-120 min at 30° C. before the addition of the ATP/substrate mix (final concentrations of 50 μM ATP+250 ng MBP in 1× Reaction Buffer A). The mixture was then incubated at room temperature for 40 min before the addition of ADP-Glo™ reagent and a second 40 minute room temperature incubation. Following the addition of the Kinase Detection Reagent, the plate was incubated for an additional 40 min at room temperature before reading luminescence on a FlexStation 3 (Molecular Devices, Sunnyvale, Calif.). Maximum activity was determined from wells treated with vehicle and was set to 100% and minimum activity was determined from wells containing no enzyme and this was set to 0%. Percent inhibition was calculated relative to the controls and the data graphed in Collaborative Drug Discovery (CDD) Vault (Burlingame, Calif.).
# [2] = target: human LOXL2 (Homo sapiens (Human), UniProt Q9Y4K0); test: Human LOXL2 amine oxidase activity assay (Amplex Red); format: biochemical; details: concentrated conditioned media from CHO cells expressing human LOXL2, 2 h preincubation at 37° C., DAP substrate
# Method: Example B-2: Human LOXL2 Amine Oxidase Activity Assay
# LOXL2 amine oxidase activity was evaluated by measuring Amplex Red fluorescence using 10-20× concentrated conditioned media from CHO cells stably expressing human LOXL2. To assay for amine oxidase activity, 10 μL of the concentrated conditioned media was incubated with 2 μL of test compound in DMSO and 73 μL Assay Buffer (50 mM Borate Buffer, pH8) for 2 h at 37° C. After the 2 h incubation, 5 μL of 10 mM 1,5-Diaminopentane (DAP) diluted in Assay Buffer and 10 μL of Amplex Red Mix (8.5 μL Assay Buffer+0.5 μL of 10 mM Amplex Red+1 μL of 500 U/ml Horseradish Peroxidase) were added and the plate mixed and immediately placed on the FlexStation for fluorescence measurements. Fluorescence was read in kinetic mode every 2 min for 0.5-1 hour at excitation=544 and emission=590. The amine oxidase activity was calculated from the slope of the linear portion of the curve. Wells containing vehicle (DMSO) represented maximum activity and were set to 0% inhibition and wells containing 100 μM βAPN (3-aminopropionitrile) represented no activity and were set to 100% inhibition.
# Sequence of ASK1 (Q99683 649-946): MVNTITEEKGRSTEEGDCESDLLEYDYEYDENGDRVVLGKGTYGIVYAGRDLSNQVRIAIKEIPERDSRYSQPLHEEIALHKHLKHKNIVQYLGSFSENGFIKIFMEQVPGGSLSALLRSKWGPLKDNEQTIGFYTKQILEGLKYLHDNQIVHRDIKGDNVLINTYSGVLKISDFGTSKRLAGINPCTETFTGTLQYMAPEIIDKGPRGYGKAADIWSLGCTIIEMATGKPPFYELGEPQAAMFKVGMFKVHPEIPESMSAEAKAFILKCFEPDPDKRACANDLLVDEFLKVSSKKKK
# Sequence of human LOXL2 (Q9Y4K0 26-774): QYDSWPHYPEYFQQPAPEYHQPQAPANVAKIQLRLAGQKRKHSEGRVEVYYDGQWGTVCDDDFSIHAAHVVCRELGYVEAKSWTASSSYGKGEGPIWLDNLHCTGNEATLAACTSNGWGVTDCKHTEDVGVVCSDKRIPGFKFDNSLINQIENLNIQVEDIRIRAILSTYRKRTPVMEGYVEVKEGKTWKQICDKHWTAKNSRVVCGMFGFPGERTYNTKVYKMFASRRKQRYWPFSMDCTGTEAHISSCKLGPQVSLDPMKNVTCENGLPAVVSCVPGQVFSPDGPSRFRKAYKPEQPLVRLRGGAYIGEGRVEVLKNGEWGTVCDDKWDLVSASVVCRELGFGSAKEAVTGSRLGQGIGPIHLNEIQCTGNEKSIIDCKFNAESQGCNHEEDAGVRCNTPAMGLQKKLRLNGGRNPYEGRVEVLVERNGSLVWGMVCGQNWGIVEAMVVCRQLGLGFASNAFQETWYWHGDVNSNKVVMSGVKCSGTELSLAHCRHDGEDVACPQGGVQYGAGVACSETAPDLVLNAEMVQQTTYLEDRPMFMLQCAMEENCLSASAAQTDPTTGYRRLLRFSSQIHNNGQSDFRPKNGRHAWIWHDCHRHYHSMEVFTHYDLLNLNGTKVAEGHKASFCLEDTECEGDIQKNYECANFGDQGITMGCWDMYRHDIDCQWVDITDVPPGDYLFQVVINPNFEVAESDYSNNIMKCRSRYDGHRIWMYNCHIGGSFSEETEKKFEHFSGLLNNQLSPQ
SMILES,IC50 [1] [nM],IC50 [2] [nM]
"CC(C)n1cnnc1-c1cccc(NC(=O)c2cc(NC(=O)c3ccc(CN)cc3)ccc2F)n1 [Compound 1-306, 5-(4-(Aminomethyl)benzamido)-2-fluoro-N-(6-(4-isopropyl-4H-1,2,4-triazol-3-yl)pyridin-2-yl)benzamide hydrochloride]",< 300,> 1000
"NCc1cc(Oc2ccnc(C(=O)Nc3cccc(-c4nncn4C4CC4)n3)c2)nc(C(F)(F)F)c1 [Compound 1-330, 4-((4-(Aminomethyl)-6-(trifluoromethyl)pyridin-2-yl)oxy)-N-(6-(4-cyclopropyl-4H-1,2,4-triazol-3-yl)pyridin-2-yl)picolinamide hydrochloride]",< 300,< 300
"CC(C)n1cnnc1-c1cccc(NC(=O)c2cccc(Oc3cc(CN)cc(C(F)(F)F)n3)c2)n1 [Compound 1-331, 3-((4-(Aminomethyl)-6-(trifluoromethyl)pyridin-2-yl)oxy)-N-(6-(4-isopropyl-4H-1,2,4-triazol-3-yl)pyridin-2-yl)benzamide hydrochloride]",< 300,< 300
"CC(C)n1cnnc1-c1cccc(NC(=O)c2cc(Oc3ccc(Br)cn3)ccc2F)n1 [Compound 1-337, 5-((5-Bromopyridin-2-yl)oxy)-2-fluoro-N-(6-(4-isopropyl-4H-1,2,4-triazol-3-yl)pyridin-2-yl)benzamide hydrochloride]",300 to 1000,–
"O=C(Nc1ccc(F)c(C(=O)Nc2cccc(-c3nncn3C(CF)CF)n2)c1)c1ccccc1 [Compound 1-340, 5-Benzamido-N-(6-(4-(1,3-difluoropropan-2-yl)-4H-1,2,4-triazol-3-yl)pyridin-2-yl)-2-fluorobenzamide hydrochloride]",< 300,–
"C[C@H](CO)n1cnnc1-c1cccc(NC(=O)c2cc(NC(=O)c3ccccc3)ccc2F)n1 [Compound 1-341, (R)-5-Benzamido-2-fluoro-N-(6-(4-(1-hydroxypropan-2-yl)-4H-1,2,4-triazol-3-yl)pyridin-2-yl)benzamide]",< 300,–
"C[C@H](CO)n1cnnc1-c1cccc(NC(=O)c2cc(Nc3ccc(F)cc3)ccc2F)n1 [Compound 1-342, (R)-2-Fluoro-5-((4-fluorophenyl)amino)-N-(6-(4-(1-hydroxypropan-2-yl)-4H-1,2,4-triazol-3-yl)pyridin-2-yl)benzamide]",300 to 1000,–
"C[C@H](CO)n1cnnc1-c1cccc(NC(=O)c2cc(NCc3ccc(F)cc3)ccc2F)n1 [Compound 1-343, (R)-2-Fluoro-5-((4-fluorobenzyl)amino)-N-(6-(4-(1-hydroxypropan-2-yl)-4H-1,2,4-triazol-3-yl)pyridin-2-yl)benzamide hydrochloride]",< 300,–
